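Five compound concentrations were applied to cells in 96-well plates for 48 hours; endpoints were derived by simple linear interpolation of the resulting dose-response curve. GI50: concentration for 50% inhibition of growth. TGI: total growth inhibition.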
Assays:
Assay in all cases: growth of human tumour cells (NCI), 48 h
[1] = tested on: 786-0 renal
[2] = tested on: A498 renal
[3] = tested on: A549 NSCLC
[4] = tested on: ACHN renal
[5] = tested on: BT-549 breast
[6] = tested on: CAKI-1 renal
[7] = tested on: CCRF-CEM leukemia
[8] = tested on: COLO 205 colon
[9] = tested on: DU-145 prostate
[10] = tested on: EKVX NSCLC
[11] = tested on: HCC-2998 colon
[12] = tested on: HCT-116 colon
[13] = tested on: HCT-15 colon
[14] = tested on: HOP-62 NSCLC
[15] = tested on: HOP-92 NSCLC
[16] = tested on: HS 578T breast
[17] = tested on: HT29 colon
[18] = tested on: IGROV1 ovarian
[19] = tested on: K-562 leukemia
[20] = tested on: KM12 colon
[21] = tested on: LOX IMVI melanoma
[22] = tested on: M14 melanoma
[23] = tested on: MALME-3M melanoma
[24] = tested on: MCF7 breast
[25] = tested on: MDA-MB-231 breast
[26] = tested on: MDA-MB-435
[27] = tested on: MOLT-4 leukemia
[28] = tested on: NCI-H226 lung
[29] = tested on: NCI-H23 lung

O=C1NC(=C(Cl)Cl)/C(=N/S(=O)(=O)N2CCCCC2CC2(C(F)(F)F)N=N2)N1 (configuration not stated)
GI50 [1]: 3.2 µM
TGI [1]: 9.62 µM
GI50 [2]: 11.4 µM
TGI [2]: 24.1 µM
GI50 [3]: 3.72 µM
TGI [3]: 14 µM
GI50 [4]: 1.74 µM
TGI [4]: 3.12 µM
GI50 [5]: 1.89 µM
TGI [5]: 3.67 µM
GI50 [6]: 1.7 µM
TGI [6]: 3.09 µM
GI50 [7]: 1.99 µM
TGI [7]: 5.57 µM
GI50 [8]: 1.89 µM
TGI [8]: 3.68 µM
GI50 [9]: 3.47 µM
TGI [9]: 11.8 µM
GI50 [10]: 2.04 µM
TGI [10]: 4.33 µM
GI50 [11]: 1.86 µM
TGI [11]: 3.38 µM
GI50 [12]: 1.73 µM
TGI [12]: 3.26 µM
GI50 [13]: 0.398 µM
TGI [13]: 1.5 µM
GI50 [14]: 3.22 µM
TGI [14]: 13.5 µM
GI50 [15]: 1.73 µM
TGI [15]: 3.61 µM
GI50 [16]: 2.83 µM
TGI [16]: 9.84 µM
GI50 [17]: 1.88 µM
TGI [17]: 3.61 µM
GI50 [18]: 1.58 µM
TGI [18]: 3.09 µM
GI50 [19]: 0.628 µM
TGI [19]: 10.8 µM
GI50 [20]: 3.14 µM
TGI [20]: 12.2 µM
GI50 [21]: 0.43 µM
TGI [21]: 1.58 µM
GI50 [22]: 1.85 µM
TGI [22]: 3.93 µM
GI50 [23]: 1.57 µM
TGI [23]: 2.99 µM
GI50 [24]: 0.769 µM
TGI [24]: 11.8 µM
GI50 [25]: 1.73 µM
TGI [25]: 3.44 µM
GI50 [26]: 2.24 µM
TGI [26]: 5.38 µM
GI50 [27]: 1.68 µM
TGI [27]: 4.43 µM
GI50 [28]: 15.5 µM
TGI [28]: 44.4 µM
GI50 [29]: 1.71 µM

Source: PubChem BioAssay (NCI)
